Data as given in patent publication US12252555B2 (CHINA NATIONAL RESEARCH INSTITUTE OF FOOD & FERMENTATION …, priority 2018, dated 2025).
No end group written: not given here.

How the values were obtained:
Type in all cases: biochemical
[1] = Determination of capacity to scavenge DPPH free radicals; conditions: positive control; FIG. 10
Protocol: 8.1 Determination of Capacity to Scavenge DPPH Free Radicals
Samples in different concentrations are taken and mixed with DPPH-anhydrous ethanol solution ([…]) in a volume ratio of 1:1, and stored for 30 min under a dark condition, and the absorbance of the mixed solution is measured at 517 nm in ultraviolet-visible spectrum, and recorded as Ai. Correspondingly, sample solutions in different mass concentrations are evenly mixed with anhydrous ethanol solution in a volume ratio of 1:1, and stored for 30 min under a dark condition at room temperature, and the absorbance of the mixed solution is measured at 517 nm in ultraviolet-visible spectrum, and recorded as Aj. Distilled water is evenly mixed with DPPH-anhydrous ethanol solution ([…]) in a volume ratio of 1:1, and stored for 30 min under a dark condition at room temperature, and the absorbance is measured at 517 nm in ultraviolet-visible spectrum, and recorded as Ac. Experiment of each group is repeated three times, and average values are obtained and standard deviations are calculated. The sodium selenite and the pea oligopeptide are used as raw material controls before chelation, and ascorbic acid is used as a positive control, the scavenging rate of the sample on DPPH free radicals is calculated according to the following formula:
(§1) [formula] 8.2 Determination of Capacity to Scavenge OH Free Radicals

[2] = Determination of reducing capacity (K3[Fe(CN)6]/FeCl3, absorbance at 700 nm); conditions: absorbance at 700 nm about 1.6; FIG. 14
Protocol: (§2) [formula] 8.3 Determination of Reducing Capacity
Sample solutions in different concentrations are taken and evenly mixed with phosphate buffer (0.2 mol/L, pH 6.6) and K3[Fe(CN)6] solution with a mass concentration of 1% in a volume ratio of 1:1:1, stored in a water bath at 50° C. for 10 min, and quickly cooled with cold water. 1 volume of trichloroacetic acid solution with a mass concentration of 10% is added, shaken well quickly and thoroughly under a dark condition, and then 1 volume of reaction mixture is taken out, and added with 1 volume of distilled water and 0.2 volume of FeCl3 solution with a mass concentration of 0.1%, and after shaking well quickly and thoroughly under a dark condition, standing for 10 min, the absorbance is measured at 700 nm, and recorded as A3. The sodium selenite and the pea oligopeptide are used as raw material controls before chelation, and ascorbic acid is used as an overall control, the absorbance A3 is directly used as a parameter of the reducing capacity of the sample. Experiment of each group is repeated three times, and average values are obtained and standard deviations are calculated.

[3] = Determination of capacity to scavenge OH free radicals; conditions: positive control; FIG. 12
Protocol: as §1
Sample solutions in different concentrations are taken and evenly mixed with FeSO4 ([…]) and salicylic acid-anhydrous ethanol solution ([…]) in a volume ratio of 1:2:2, the reaction is started with 1 volume of H2O2 solution ([…]), reacting in a water bath at 37° C. for 1 h, and the absorbance is measured at 510 nm in ultraviolet-visible spectrum, and recorded as A2. Correspondingly, the H2O2 solution ([…]) is replaced with 1 volume of water, and the ratio of remaining reagents remains unchanged, reacting in a water bath at 37° C. for 1 h, and the absorbance is measured at 510 nm in ultraviolet-visible spectrum, and recorded as A20. The sample solution is replaced with distilled water, and the ratio of remaining reagents remains unchanged, reacting in a water bath at 37° C. for 1 h, and the absorbance is measured at 510 nm, and recorded as A02. Experiment of each group is repeated three times, and average values are obtained and standard deviations are calculated. The sodium selenite and the pea oligopeptide are used as raw material controls before chelation, and ascorbic acid is used as a positive control, the scavenging rate of the sample on OH free radicals is calculated according to the following formula:
as §2

[4] = Identification of oxidation resistance by ABTS+ method (Trolox standard); parameters: Total antioxidant capacity: unit not given here; conditions: for Total antioxidant capacity: ABTS+ method, sample 5 mg/mL, Trolox standard curve, 734 nm; for Increased multiple, compared with selenium-chelating pea oligopeptide: ratio of total antioxidant capacity
Excerpt: 9.2 Identification of Oxidation Resistance of Peptide Segment

O=C1O[C@H]([C@@H](O)CO)C(O)=C1O [ascorbic acid]
IC50 value of scavenging DPPH free radical [1]: 4.85 ± 0.02 µg/mL
Required concentration for absorbance value about 1.6 (reducing capacity) [2]: 400 µg/mL
IC50 value of scavenging OH free radical [3]: 1024.87 ± 5.96 µg/mL

HQMPKP [standard synthetic peptide segment identified in the selenium-chelating pea oligopeptide]
Total antioxidant capacity [4]: −9.53

PPKIYP [standard synthetic peptide segment identified in the selenium-chelating pea oligopeptide]
Total antioxidant capacity [4]: 211.12
Increased multiple, compared with selenium-chelating pea oligopeptide [4]: 3.90

TGRGAP [standard synthetic peptide segment identified in the selenium-chelating pea oligopeptide]
Total antioxidant capacity [4]: 3.25
Increased multiple, compared with selenium-chelating pea oligopeptide [4]: 0.06

Thr-Ser-Ser-Leu-Pro (TSSLP; listed as Pisum sativum) [standard synthetic peptide segment identified in the selenium-chelating pea oligopeptide]
Total antioxidant capacity [4]: 5.55
Increased multiple, compared with selenium-chelating pea oligopeptide [4]: 0.10
